{
  "source": "patent US8211883B2",
  "about": "“Topical delivery of phthalocyanines” (priority 2004, dated 2012)",
  "key": {"[1]": {"system": "Chinese hamster V79-379 lung fibroblasts", "assay": "Growth delay of V79 cultures after phthalocyanine and red light", "type": "cell-based", "conditions": "V79 cells, 1.0 μM, 18 hours, 12 kJ/m^2 red light", "protocol": "At the time of light exposure, there were approximately 1.5×10^5 cells per 25 cm^2 flask. Following irradiation, the HBSS was replaced by 10 mL of fresh complete growth medium, and the cultures were returned to the 37° C. incubator. At various times before and after irradiation, duplicate cultures were trypsinized and counted. Controls included untreated cells and cells treated with light alone or drug alone. In addition, in each experiment, the drug to be tested was compared to a standard treatment, i.e. 1 μM AlPcCl for 18 hours followed by 12 kJ/m^2 light.\nThe inhibition of V79 culture growth was measured during a three day period following red light irradiation (12 kJ/m^2) of phthalocyanine-pretreated cells. With each of the active compounds, as well as with AlPcCl, there was an initial decrease in cell density, as dead cells became detached from the monolayer. Thereafter, the cell number per flask increased, as living cells grew and divided. The time for the cell density to recover to the level at the time of light exposure was considered the growth delay. […] The ratio of the growth delay for the test photosensitizer and the growth delay for AlPcCl measured in the same experiment is recorded in Table 1. There was less inhibition of culture growth when cells were exposed to compounds III, V, or VI as expected from the poor cellular uptake of these drugs."}, "[2]": {"system": "Chinese hamster V79-379 lung fibroblasts", "assay": "Uptake of phthalocyanines into V79 cells", "conditions": "V79 cells, 1.0 μM, 18 hours", "summary_of_the_method": "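V79-379 cells were incubated with phthalocyanine for 18 h, typically at 1, 2 and/or 4 μM. Cells collected on filters were extracted into ethanol and absorbance read at the peak, usually 668 nm. Values are nmol per 10^6 cells, using ε 2.93×10^5.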"}, "[3]": {"assay": "Photolysis of solutions by white light", "type": "physicochemical"}, "L5178Y cells": {"system": "L5178Y cells", "assay": "Induction of apoptosis (DNA ladder) in L5178Y cells after PDT", "type": "cell-based, Mouse", "conditions": "for induction of apoptosis: 1 μM at a fluence of 30 kJ/m^2; for Fluence, Minimum Demonstrated Condition to Induce Apoptosis / C × F Ld90, Minimum Demonstrated Condition to Induce Apoptosis: 0.5 μM; for Fluence, Minimum Demonstrated Condition to Induce Apoptosis: suspended in DMF-Tween 80; for C × F Ld90, Minimum Demonstrated Condition to Induce Apoptosis: suspended in DMF-Tween 80, product of concentration and fluence"}, "[4]": {"system": "Chinese hamster V79-379 lung fibroblasts", "assay": "Clonogenic cell survival of V79 cells after photodynamic treatment", "type": "cell-based", "conditions": "for CF10(AIPcCI)/CF10 (Pc) / F10(AIPcCI)/F10 (Pc): 1.0 μM; for CF10(AIPcCI)/CF10 (Pc): CF10 = product of intracellular concentration and fluence reducing survival to 10%; for F10(AIPcCI)/F10 (Pc): F10 = fluence reducing cell survival to 10%", "summary_of_the_method": "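V79 cells exposed to 0.5 or 1.0 μM phthalocyanine, then irradiated about 18 h later with increasing fluences of broad-band red light (600 nm high-pass filter). Survival scored as colonies of ≥50 cells. F10 taken from survival curves; CF10 from survival against intracellular concentration × fluence; 1 μM AlPcCl run as reference.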"}, "[5]": {"system": "RIF-1 (radiation-induced fibrosarcoma) tumors", "assay": "PDT of RIF-1 implanted tumors", "type": "in vivo, C3H/HeN mice", "set-up": "key to Tumor Responses at 24 hours: complete: no evidence of any tumor mass in any animal; only the scar from the photodynamic therapy was evident.; near complete: evidence of any tumor mass in four or five animals; only some tumor mass in one or two animals.; substantial: a significant tumor shrinkage occurred in all animals. In some animals the tumor response was complete, yet in others the response was not complete.; moderate: some tumor shrinkage was evident in some animals. In animals with some tumor shrinkage, scar formation was evident.; slight: some tumor decrease occurred in one or two mice", "conditions": "1 mg/kg in corn oil, 675 nm", "protocol": "The relative effectiveness at reducing tumor volume of selected phthalocyanine compounds at a given dosage was compared in vivo. RIF-1, i.e., radiation-induced fibrosarcoma, tumors were implanted into the backs of C3H/HeN mice. One tumor was implanted per mouse. Each of the phthalocyanine compounds listed in Table 7 was sonicated and vortexed in corn oil to produce a suspension. When the tumors reached […] in diameter and 2-3 mm in thickness, each mouse received 1 mg/kg in 0.1 mL of the corn oil, of the phthalocyanine suspension. For comparison, select mice received a conventional photosensitizer; either 5 mg/kg of chloroaluminum phthalocyanine tetrasulfonate, herein also referred to as “AlPcTS” in phosphate buffered saline or 5 mg/kg of Photofrin®-II in 5% dextrose. Twenty-four hours after the photosensitizers were administered, the tumors were irradiated with visible radiation delivered by an argon-pumped dye laser. The mice that received a phthalocyanine photosensitizer received light having a wavelength of 675 nm and the mice that received the Photofrin® II photosensitizer received light having a wavelength of 630 nm. Each tumor received 135 J/cm^2 of radiation. Tumor size was measured every day using calipers. The initial tumor volume was 50±10 mm^3. Tumor volume was calculated according to the hemiellipsoid model by the formula: V=½(4π)/3×(½×(w/2))×h\n• complete—no evidence of any tumor mass in any animal; only the scar from the photodynamic therapy was evident. • near complete—evidence of […] in four or five animals; only some tumor mass in one or two animals. • substantial—a significant tumor shrinkage occurred in all animals. In some animals the tumor response was complete, yet in others the response was not complete. • moderate—some tumor shrinkage was evident in some animals. In animals with some tumor shrinkage, scar formation was evident. • slight—some tumor decrease occurred in one or two mice."}, "Solubility": {"assay": "Solubility", "type": "physicochemical"}, "[6]": {"system": "human breast cancer MCF-7c3 cells", "assay": "Uptake of PcIV salts into MCF-7c3 cells by flow cytometry", "conditions": "50, 100 or 200 nM, 60 minutes, mean channel fluorescence normalized to PcIV", "method": "Cells were grown in 5 mL of RPMI-1640 medium supplemented with 10% fetal calf serum in 60-mm diameter Petri dishes in a 37° C. incubator in an atmosphere of 5% CO2, 95% air. Cultures were used when they were in exponential growth. For experiments, various concentrations (50, 100, or 200 nM) of each compound (PcIV, PcIV-HCl, PcIV-pyruvate), were added to the medium above the cells, and the dishes were returned to the incubator for 60 minutes to allow the photosensitizers to enter the cells. To evaluate uptake, the medium was removed, and the cells were detached from the plastic surface with trypsin and collected by centrifugation. The cell pellet was suspended in phenol-red-free Hank's balanced salt solution and analyzed by flow cytometry (λex=335-355 nm; emission collected through a 650-nm long-pass filter). For each cell sample, the data were expressed as the mean channel fluorescence and background was subtracted. Data for each concentration of the PcIV salts were then normalized to those for the same concentration of PcIV in the same experiment. […] Error bars represent the standard deviation of the mean."}, "[7]": {"system": "human skin keratome biopsies", "assay": "Penetration of topically applied PcIV and salts into human skin, confocal fluorescence microscopy", "type": "in vitro ADME", "conditions": "compared to PcIV", "protocol": "Human skin absorption of PcIV was analyzed by fluorescence confocal microscopy. PcIV fluorescence, upon activation with a HeNe laser at 633 nm, was visualized using a 650 long pass filter. Briefly, 0.4 mm thick human keratomes were removed from the gluteal region of healthy volunteers and divided into 1.5 cm×1.5 cm squares of skin. Upon application of PcIV to the epidermis in a vehicle of ethanol and propylene glycol, visualization of penetration of PcIV was achieved by fluorescence. Pc 4 was then prepared as PcIV-pyruvate and PcIV-HCl and applied in the same vehicle as Pc 4 to the epidermis. Three concentrations, namely, 0.1 mg/mL, 0.05 mg/mL, and 0.01 mg/mL were tested per PcIV formulation. Skin was incubated at 37° C. for 1, 2, and 4 hours, along with vehicle controls. […] Maximum PcIV fluorescence was detectable using laser transmission of 3% for the 0.1 mg/mL and 30% for the 0.01 mg/mL. Both PcIV.pyruvate and PcIV.HCl however could be visualized with a laser transmission of 2-3% for the 0.1 mg/mL and 7-9% for the 0.01 mg/mL concentrations.\nThe ability of PcIV and the newly prepared PcIV salts (HCl and pyruvate) to penetrate into the epidermis of keratome derived biopsies was examined. The time course of penetrance as well as the effect of dose of the PcIV compounds were evaluated. PcIV and the PcIV.HCl and PcIV.pyruvate salts were resuspended in ethanol (100%, 1 part PcIV, 499 parts ethanol) and then diluted to final concentrations in a 30% Propylene Glycol 70% Ethanol mixture.\nKeratome biopsies of normal skin were obtained from normal volunteers after written consent according to UHHS IRB protocol # 05-95-03. To date, seven experiments have been performed. The range of age for volunteers was 20-40 yrs. Individuals represented Fitzpatrick skin types between I-III. Skin biopsies were held in PBS following the keratome procedure until processed for PcIV Application (less than 1 hr). The keratome skin samples (1.5 cm^2) were overlayed onto sterile gauze in 80 mm tissue culture petri dishes epidermal side down. PcIV compounds were then applied to the corners of the sterile gauze and allowed to “wick” through the gauze and contact the epidermis of the skin for the indicated times. Following the incubation, the tissue was removed from the gauze and washed three times in phosphate buffered saline and held, in PBS, until analysis by confocal microscopy. Confocal images were acquired using a 20×N.A. 0.5 water immersion objective on a Zeiss 510 confocal microscope. PcIV fluorescence was elicited using a 633 nm wavelength for excitation, and collected with a 633 nm dichroic mirror and 650 nm long-pass filter."}},
  "data": [
    {"compound": "CN(C)CCC[Si](C)(C)O[Si]1(C)n2c3c4ccccc4c2N=C2N=C(N=c4c5ccccc5c(n41)=NC1=NC(=N3)c3ccccc31)c1ccccc12", "note": "(centres unmarked) [Compound III, CH3SiPcOSi(CH3)2(CH2)3N(CH3)2]", "values": [
      {"measurement": "Growth Delay (12 kj/m^2), Efficiency Relative to 1 μM (AlPcCl)", "setting": "[1]", "value": 0.05},
      {"measurement": "Uptake, Efficiency Relative to 1 μM (AlPcCl)", "setting": "[2]", "value": 0.07},
      {"measurement": "photolysis of solutions", "setting": "[3]", "value": "rapidly photolyzed by white light"}
    ]},
    {"compound": "C[N+](C)(C)CCC[Si](C)(C)O[Si]1(O)n2c3c4ccccc4c2N=C2N=C(N=c4c5ccccc5c(n41)=NC1=NC(=N3)c3ccccc31)c1ccccc12.[I-]", "note": "(centres unmarked) [Compound V, HOSiPcOSi(CH3)2(CH2)3N(CH3)3^+I^−]", "values": [
      {"measurement": "Growth Delay (12 kj/m^2), Efficiency Relative to 1 μM (AlPcCl)", "setting": "[1]", "value": 0},
      {"measurement": "induction of apoptosis", "setting": "L5178Y cells", "value": "did not induce apoptosis"},
      {"measurement": "CF10(AIPcCI)/CF10 (Pc)", "setting": "[4]", "value": 3.0},
      {"measurement": "F10(AIPcCI)/F10 (Pc)", "setting": "[4]", "value": 0.59},
      {"measurement": "Tumor Responses at 24 hours", "setting": "[5]; 135 J/cm^2, light 24 h after dosing", "value": "moderate"},
      {"measurement": "Doubling Time of Initial Tumor Volume after PDT", "setting": "[5]; 135 J/cm^2, controls 4 days", "value": 6, "unit": "days"},
      {"measurement": "Uptake, Efficiency Relative to 1 μM (AlPcCl)", "setting": "[2]", "value": 0.3},
      {"measurement": "solubility in H2O", "setting": "Solubility", "value": "insoluble"}
    ]},
    {"compound": "C[N+](C)(C)CCC[Si](C)(C)O[Si]1(O[Si](C)(C)CCC[N+](C)(C)C)n2c3c4ccccc4c2N=C2N=C(N=c4c5ccccc5c(n41)=NC1=NC(=N3)c3ccccc31)c1ccccc12.[I-].[I-]", "note": "[Compound VI, SiPc[OSi(CH3)2(CH2)3N(CH3)3)^+I^−]2]", "values": [
      {"measurement": "Growth Delay (12 kj/m^2), Efficiency Relative to 1 μM (AlPcCl)", "setting": "[1]", "value": 0.5},
      {"measurement": "induction of apoptosis", "setting": "L5178Y cells", "value": "did not induce apoptosis"},
      {"measurement": "Uptake, Efficiency Relative to 1 μM (AlPcCl)", "setting": "[2]", "value": 0.1},
      {"measurement": "solubility in H2O", "setting": "Solubility", "value": "disperses in H2O but doses not dissolve in it"}
    ]},
    {"compound": "CN1CCN(CCC[Si](C)(C)O[Si]2(O[Si](C)(C)CCCN3CCN(C)CC3)n3c4c5ccccc5c3N=C3N=C(N=c5c6ccccc6c(n52)=NC2=NC(=N4)c4ccccc42)c2ccccc23)CC1", "note": "[Compound XXX, SiPc[OSi(CH3)2(CH2)3NC4H8NCH3]2]", "values": [
      {"measurement": "Fluence, Minimum Demonstrated Condition to Induce Apoptosis", "setting": "L5178Y cells", "value": 15.0, "unit": "kJ/m^2"},
      {"measurement": "C × F Ld90, Minimum Demonstrated Condition to Induce Apoptosis", "setting": "L5178Y cells", "value": 7.5, "unit": "kJ/m^2"},
      {"measurement": "Maximum Effect (% survival at kj/m^2)", "setting": "[4]; concentration not given, at 10 kj/m^2", "value": 30, "unit": "% at 10"},
      {"measurement": "solubility in DMF", "setting": "Solubility", "value": "not soluble in DMF"}
    ]},
    {"compound": "C[Si](C)(CCCN1CCNCC1)O[Si]1(O[Si](C)(C)CCCN2CCNCC2)n2c3c4ccccc4c2N=C2N=C(N=c4c5ccccc5c(n41)=NC1=NC(=N3)c3ccccc31)c1ccccc12", "note": "[Compound XXXII, SiPc[OSi(CH3)2(CH2)3NC4H8NH]2]", "values": [
      {"measurement": "Fluence, Minimum Demonstrated Condition to Induce Apoptosis", "setting": "L5178Y cells", "value": 5, "unit": "kJ/m^2"},
      {"measurement": "C × F Ld90, Minimum Demonstrated Condition to Induce Apoptosis", "setting": "L5178Y cells", "value": 2.5, "unit": "kJ/m^2"},
      {"measurement": "solubility in DMF", "setting": "Solubility", "value": "not soluble in DMF"}
    ]},
    {"compound": "CC(=O)C(=O)O.CN(C)CCC[Si](C)(C)O[Si]1(O)n2c3c4ccccc4c2N=C2N=C(N=c4c5ccccc5c(n41)=NC1=NC(=N3)c3ccccc31)c1ccccc12", "note": "(centres unmarked) [PcIV-pyruvate, HOSiPcOSi(CH3)2(CH2)3N(CH3)2(CH3C(O)COOH)]", "values": [
      {"measurement": "efficiency in entering MCF-7c3 cells compared to PcIV", "setting": "[6]", "value": "at least as efficient, and possibly more efficient"},
      {"measurement": "effect of salt formulation on penetration through the skin", "setting": "[7]", "value": "does not hinder the penetration"}
    ]},
    {"compound": "AlPcOSi(CH3)2(CH2)3N(CH3)3^+I^− [Compound II]", "values": [
      {"measurement": "Growth Delay (12 kj/m^2), Efficiency Relative to 1 μM (AlPcCl)", "setting": "[1]", "value": 3.4},
      {"measurement": "CF10(AIPcCI)/CF10 (Pc)", "setting": "[4]", "value": 0.72},
      {"measurement": "F10(AIPcCI)/F10 (Pc)", "setting": "[4]", "value": 0.99},
      {"measurement": "Uptake, Efficiency Relative to 1 μM (AlPcCl)", "setting": "[2]", "value": 1.8},
      {"measurement": "solubility in H2O", "setting": "Solubility", "value": "insoluble"}
    ]}
  ]
}
